# System: Caucasian patients with schizophrenia (CATIE)
# Test: Genetic association (linear regression, additive model) of SNP alleles with MMRM-modelled change in PANSS Total Score under antipsychotic treatment, CATIE trial
# Format: in vivo, human
# Protocol: For the CATIE study, individual cases were diagnosed as having SZ based on DSM-III/IV criteria. Treatment response for all patients was assessed using the Positive and Negative Syndrome Scale (PANSS) (Kay et al., 1987; Kay et al., 1989; Leucht et al., 2005). […] To avoid possible bias in post hoc selection of a treatment response variable, the inventors used the mixed model repeated measures (MMRM) approach developed by van den Oord and coworkers (van den Oord et al., 2009). […] The design of the CATIE study, including details of consent for genetic analyses, has been described in detail by others (Lieberman et al., 2005; Stroup et al., 2003; Sullivan et al., 2008). Only retrospective genetic analyses, judged to be exempt from human studies requirements by an IRB, were conducted in the current study. Consented DNA samples were obtained from the Rutgers University Cell and DNA Repository in collaboration with […]. […] All of these patients self-reported as having exclusively European ancestry. […] Genotyping was performed on a fee for service basis according to Illumina's standard operating procedures. Raw intensity files were processed using Illumina® BeadStudio version 1.7.4 software. […] Only two of these had been previously genotyped in the CATIE sample. […] To allow comparison to previously published PGx findings for CATIE and to avoid possible bias in post-hoc selection of a treatment response variable, the inventors used the mixed model repeated measures (MMRM) approach developed by Van den Oord and coworkers (van den Oord et al., 2009; […] et al., 2011). Briefly, this method models random effects by introducing random slopes for treatment effects, allowing treatment effects to be different across subjects. The MMRM approach serves to increase the statistical power to detect genetic associations by increasing the precision in measuring change in PANSS Total Score (PANSS-T) by accounting for variance due to baseline PANSS-T, and treatment, as well as smoothing out the random fluctuations in PANSS-T between visits due to various uncontrolled variables. […] Bozeman, Mont.). Quantile-Quantile (QQ) plots were prepared using the R statistical package version 2.14.1. For comparison purposes, original CATIE-provided SNP genotypes in specific genes were evaluated using the same genetic analysis. Haplotype association integrating newly generated and original genotypes for specific regions was carried out in SVS using haplotype blocks predefined by Haploview software. […] For each of the SNPs listed the reference SNP (rs) number is provided, which provides the known sequence context for the given SNP (see, e.g., National Center for Biotechnology Information (NCBI) SNP database available on the world wide web at ncbi.nlm.nih.gov/snp).
smiles,measurement,setting,value
"Cc1cc2c(s1)Nc1ccccc1N=C2N1CCN(C)CC1 [Olanzapine, olanzapine]",Beta (PANSS),ADAMTS9-AS2 rs17071651 allele C,−3.03 PANSS
same,Beta (PANSS),AGAP1 rs4663220 allele T,−3.07 PANSS
same,Beta (PANSS),ANK3 rs2893823 allele A,−4.47 PANSS
same,Beta (PANSS),ANK3 rs10821660 allele G,−4.45 PANSS
same,Beta (PANSS),APCDD1 rs1045584 allele G,−3.41 PANSS
same,Beta (PANSS),ARHGAP31 rs751607 allele A,−4.30 PANSS
same,Beta (PANSS),ARVCF rs2238794 allele C,−3.11 PANSS
same,Beta (PANSS),ATP10A rs2291351 allele A,−4.99 PANSS
same,Beta (PANSS),BIK rs5996274 allele A,−4.94 PANSS
same,Beta (PANSS),CA10 rs741682 allele A,−5.58 PANSS
same,Beta (PANSS),CACNA1B rs12352971 allele G,−4.21 PANSS
same,Beta (PANSS),CACNG4 rs7219571 allele A,−5.84 PANSS
same,Beta (PANSS),CAMK2D rs13113625 allele C,−3.68 PANSS
same,Beta (PANSS),CDH13 rs3743621 allele C,−5.54 PANSS
same,Beta (PANSS),CLIC5 rs35822882 allele G,−14.90 PANSS
same,Beta (PANSS),CNTN4 rs1554561 allele T,−4.50 PANSS
same,Beta (PANSS),CNTN4 rs4685501 allele T,−4.63 PANSS
same,Beta (PANSS),CPNE5 rs12194367 allele T,−3.14 PANSS
same,Beta (PANSS),CSMD1 rs2724972 allele G,−4.69 PANSS
same,Beta (PANSS),CSMD1 rs7815861 allele C,−5.06 PANSS
same,Beta (PANSS),DLGAP1 rs498419 allele A,−3.07 PANSS
same,Beta (PANSS),DLGAP1 rs561434 allele A,−4.43 PANSS
same,Beta (PANSS),EHD4 rs1048166 allele C,−3.04 PANSS
same,Beta (PANSS),EHD4 rs1048175 allele C,−3.04 PANSS
same,Beta (PANSS),EML1 rs34198557 allele C,−4.01 PANSS
same,Beta (PANSS),ERBB4 rs7565257 allele A,−3.44 PANSS
same,Beta (PANSS),ERG rs9981408 allele G,−3.15 PANSS
same,Beta (PANSS),EXOC2 rs9405889 allele C,−3.21 PANSS
same,Beta (PANSS),FAM170A rs2162856 allele A,−3.06 PANSS
same,Beta (PANSS),FAM173B rs12652786 allele C,−3.39 PANSS
same,Beta (PANSS),FBN3 rs2287937 allele C,−5.34 PANSS
same,Beta (PANSS),FGF14 rs2390674 allele A,−4.22 PANSS
same,Beta (PANSS),FHIT rs971866 allele A,−5.07 PANSS
same,Beta (PANSS),FMNL2 rs4664113 allele C,−4.25 PANSS
same,Beta (PANSS),FSTL5 rs13127909 allele C,−4.60 PANSS
same,Beta (PANSS),GAN rs1345895 allele A,−3.53 PANSS
same,Beta (PANSS),GAS7 rs9904524 allele G,−4.96 PANSS
same,Beta (PANSS),GPC6 rs9301876 allele A,−4.68 PANSS
same,Beta (PANSS),GRM8 rs17865066 allele A,−7.97 PANSS
same,Beta (PANSS),GRM8 rs17865434 allele C,−7.97 PANSS
same,Beta (PANSS),HTR1B rs11568817 allele G,−3.16 PANSS
same,Beta (PANSS),IFT74 rs4463511 allele C,−3.77 PANSS
same,Beta (PANSS),IL1RAP rs2361835 allele A,−3.93 PANSS
same,Beta (PANSS),IL1RAP rs7642607 allele A,−3.93 PANSS
same,Beta (PANSS),IL1RAP rs7642797 allele A,−3.93 PANSS
same,Beta (PANSS),IL15 rs3806798 allele A,−4.33 PANSS
same,Beta (PANSS),ITPR1 rs11717244 allele C,−3.53 PANSS
same,Beta (PANSS),JPH2 rs2064381 allele A,−3.06 PANSS
same,Beta (PANSS),KAZN rs12130605 allele C,−3.66 PANSS
same,Beta (PANSS),KCND2 rs718805 allele A,−5.26 PANSS
same,Beta (PANSS),KCND2 rs10953911 allele G,−5.26 PANSS
same,Beta (PANSS),KCND2 rs11765060 allele C,−5.30 PANSS
same,Beta (PANSS),KCNH1 rs4282878 allele C,−3.08 PANSS
same,Beta (PANSS),KDM4C rs35389625 allele C,−11.20 PANSS
same,Beta (PANSS),KITLG rs995029 allele C,−7.22 PANSS
same,Beta (PANSS),LDB2 rs872478 allele C,−3.53 PANSS
same,Beta (PANSS),LRP1B rs4591293 allele A,−3.04 PANSS
same,Beta (PANSS),MACROD2 rs461651 allele A,−3.59 PANSS
same,Beta (PANSS),MACROD2 rs6079429 allele A,−4.72 PANSS
same,Beta (PANSS),MAGI2 rs848813 allele C,−4.34 PANSS
same,Beta (PANSS),MAGI2 rs12705833 allele G,−2.87 PANSS
same,Beta (PANSS),MCPH1 rs930557 allele C,−3.78 PANSS
same,Beta (PANSS),MEPE rs3749575 allele A,−8.95 PANSS
same,Beta (PANSS),MTIF3 rs12585587 allele A,−4.37 PANSS
same,Beta (PANSS),NAB1 rs2293765 allele A,−4.60 PANSS
same,Beta (PANSS),NELL1 rs4244549 allele C,−4.96 PANSS
same,Beta (PANSS),NRXN1 rs11885824 allele A,−5.21 PANSS
same,Beta (PANSS),NTRK2 rs1490403 allele A,−3.10 PANSS
same,Beta (PANSS),NTRK2 rs1490407 allele G,−3.00 PANSS
same,Beta (PANSS),NTRK2 rs4142909 allele C,−3.81 PANSS
same,Beta (PANSS),NTSR2 rs7602721 allele C,−4.08 PANSS
same,Beta (PANSS),PARD3B rs17283257 allele A,−3.82 PANSS
same,Beta (PANSS),PCDH15 rs10825137 allele A,−4.89 PANSS
same,Beta (PANSS),PCDH17 rs7319102 allele A,−3.47 PANSS
same,Beta (PANSS),PCP4L1 rs6671288 allele C,−4.15 PANSS
same,Beta (PANSS),"PDGFD, DDI1 rs2279789 allele C",−4.42 PANSS
same,Beta (PANSS),PEBP4 rs13271643 allele C,−5.41 PANSS
same,Beta (PANSS),"PI4KA, SERPIND1 rs78656 allele C",−7.22 PANSS
same,Beta (PANSS),PKNOX2 rs1044314 allele G,−4.14 PANSS
same,Beta (PANSS),PKP4 rs11680160 allele A,−4.33 PANSS
same,Beta (PANSS),PRDM2 rs6429793 allele A,−3.13 PANSS
same,Beta (PANSS),PSD3 rs7016207 allele C,−6.20 PANSS
same,Beta (PANSS),PTPRT rs6030084 allele A,−2.96 PANSS
same,Beta (PANSS),RASGEF1C rs2278661 allele C,−3.04 PANSS
same,Beta (PANSS),RBFOX1 rs7194775 allele C,−4.37 PANSS
same,Beta (PANSS),RIMS1 rs9446639 allele C,−3.56 PANSS
same,Beta (PANSS),RNF144A rs7605141 allele C,−4.00 PANSS
same,Beta (PANSS),ROBO2 rs4343667 allele C,−4.96 PANSS
same,Beta (PANSS),RORA rs12910376 allele C,−3.38 PANSS
same,Beta (PANSS),SCN3A rs10048748 allele C,−5.44 PANSS
same,Beta (PANSS),SEC16B rs16852158 allele C,−6.45 PANSS
same,Beta (PANSS),SGCZ rs10503525 allele C,−3.05 PANSS
same,Beta (PANSS),SGCZ rs13278000 allele A,−2.91 PANSS
same,Beta (PANSS),SLC6A5 rs1443547 allele A,−3.31 PANSS
same,Beta (PANSS),SLC16A4 rs12126959 allele A,−4.16 PANSS
same,Beta (PANSS),SLC16A9 rs16913940 allele A,−6.05 PANSS
same,Beta (PANSS),SLC35F3 rs12759054 allele C,−3.34 PANSS
same,Beta (PANSS),SPOCK1 rs1051854 allele G,−6.02 PANSS
same,Beta (PANSS),WDR90 rs1057835 allele A,−3.10 PANSS
same,Beta (PANSS),ZNF169 rs9409514 allele C,−3.04 PANSS
